Test: xn = mol fraction of the nth substance listed
Settings: 100 kPa, Liquid; for mass density: Vibrating tube method; for viscosity: Falling or rolling sphere viscometry

CCCCCCCCCCC [undecane] + CCCCCCO
Settings	mass density, 323.15 K [kg/m3]	mass density, 328.15 K [kg/m3]	mass density, 333.15 K [kg/m3]	mass density, 338.15 K [kg/m3]	mass density, 343.15 K [kg/m3]	viscosity, 328.15 K [mPa·s]	viscosity, 333.15 K [mPa·s]	viscosity, 338.15 K [mPa·s]	viscosity, 343.15 K [mPa·s]
x1 = 0.1011	783.63	779.82	775.97	772.08	768.13	1.612	1.466	1.318	1.189
x1 = 0.1989	772.51	768.66	764.78	760.84	756.86	1.374	1.24	1.124	1.025
x1 = 0.2998	762.31	758.44	754.53	750.57	746.58	1.18	1.073	0.982	0.901
x1 = 0.4001	753.47	749.58	745.66	741.7	737.7	1.039	0.955	0.878	0.811
x1 = 0.4994	745.77	741.89	737.97	734.01	730.01	0.93	0.859	0.796	0.739
x1 = 0.6004	738.74	734.86	730.93	726.99	–	0.862	0.801	0.744	0.695
x1 = 0.6989	732.65	728.77	724.87	720.93	–	0.793	0.738	0.691	0.647
x1 = 0.8001	727.06	723.2	719.31	715.39	–	0.747	0.699	0.656	0.616
x1 = 0.8991	722.24	718.41	714.55	710.68	–	0.724	0.681	0.641	0.604
x1 = 1	718.11	714.39	710.68	706.95	–	0.692	0.651	0.615	0.58

— the NIST ThermoML archive (doi:10.1021/acs.jced.6b00121)
